Measurements: article PMC11009276, “Design, synthesis, biological assessment and molecular modeling studies of novel imidazothiazole-thiazolidinone hybrids as potential anticancer and anti-inflammatory agents” (Scientific Reports, 2024)
Read-outs that look alike come from different tables or passages of the source.

Key:
[1] = system: carrageenan-induced rat hind paw edema; assay: Carrageenan-induced rat paw edema inhibition assay; format: in vivo; conditions: after 4 h; for % inhibition (paw edema) / Increase in Paw volume SEM: oral 0.0314 mmol/kg; for Activity relative to standard drug: relative to diclofenac sodium; for Increase in Paw volume SEM: n = 6
Description: The anti-inflammatory efficacy of the newly synthesised compounds was assessed using a carrageenan-induced rat hind paw edema technique The animals were divided into groups of six at random, fasted for 24 h before to the experiment, and given free access to water. 0.5% CMC solution was given to the control group only. […] One hour after the administration of the test compounds and the reference drug, 0.1 mL of a 1% carrageenan solution in saline was subcutaneously injected into the subplantar area of the right hind paw of each rat. The right hind paw volume was measured using a Digital Plethysmometer PLM-01 Plus (Orchid Scientifics and Innovatives India Pvt. Ltd., Mumbai, India) at 3 and 4 h after carrageenan therapy. The following calculation was used to compute the percent edema inhibition from the mean effect in the treated and control animals: Percent edema inhibition=Vc-Vt/Vc×100 where Vc denotes the mean increase in paw volume in the control group of rats and Vt denotes the mean increase in paw volume in rats treated with test chemicals. After a 15-day washout period, the same group of rats utilised for the anti-inflammatory activity were employed for the ulcerogenic activity.

[2] = system: A549 (Lung) cancer cell line; assay: MTT cytotoxicity assay, A549; conditions: Homo sapiens, A549, 72 h, read-out: IC50 (µM) (Mean ± SD) A549
Description: (§1) All the synthesized imidazothiazole derivatives linked with thiazolidinone moiety (4a-g and 5a-d, Fig. 4) were evaluated for their in- vitro anticancer activities against three selected human cancer cell lines namely non-small lung (A549), breast (MCF7) and colorectal (HCT116) and one normal human embryonic kidney cell line (HEK293) using the 3‐(4,5‐Dimethylthiazol‐2‐yl)-2,5‐Diphenyltetrazolium Bromide (MTT) assay method. […] Compounds were tested against selected cancer cell lines namely A549 (Lung), MCF-7(Breast) HCT116 (Colon), normal human embryonic kidney cell line (HEK293) and procured from National Centre for Cell Science Complex (NCCS) Pune University, India. Into a 96 well plate, cells were seeded into each well (3 × 10^3 cells/ per well), the plate were incubated for 24 h, after that the culture medium was discarded and replaced with fresh medium along with our newly synthesized test compounds in different concentration (10, 20, 40 and 80 µM) followed by incubation for 72 h. […] Finally, each well is treated with DMSO (100 µL) and swirled to dissolve the dark crystals of formazan. ELISA reader was used to measure the absorbance at 570 nm. The experiment was repeated three times; Graph pad prism and excel are used to calculate the IC50 values[51].

[3] = system: MCF7 human breast cancer cell line; assay: MTT cytotoxicity assay, MCF7; conditions: MCF7, 72 h, read-out: IC50 (µM) (Mean ± SD) MCF7
Description: as §1

[4] = target: EGFR kinase (Homo sapiens, UniProt P00533); assay: In vitro EGFR kinase inhibitory assay (ELISA, phospho-EGFR in A549 cell lysates)
Description: For all the synthesized compounds, the overall methodology of a spectrophotometric assay for the inhibition of EGFR tyrosine kinase activity was evaluated in human A549 cells, which expressed high levels of EGFR protein. […] Cells were then washed with cold PBS, lysed in 0.2 ml/well of HNTG buffer (50 mM HEPES [(4‐(2‐hydroxyethyl)‐piperazineethanesulfonic acid; pH 7.5], 150 mM NaCl, 1.5 mM MgCl, 10% glycerol, 1% Triton X‐100, 0.5 mM sodium fluoride, 2 g/ml aprotinin, 2 g/ml pepstatin A, 1 mM sodium orthovanadate, 2 g/ml leupeptin, 1 mM phenyl methyl sulfonyl fluoride) for 10 min, and the lysates were collected as the supernatant fraction after a 12‐min centrifugation at 15,000 g. The specific EGFR concentration was measured by ELISA assay. Briefly, the wells of ELISA plates were coated with supernatant fraction and incubated at 4 °C overnight After washing three times with buffer (20 mM PBS, pH 7.2 containing 0.05% Tween‐20), the wells were blocked with 1% BSA for 2–3 h at room temperature. Further, the plate was washed and then mouse serum at 1,000‐fold dilution was added, followed by washing and incubation with phospho‐EGFR antibody (Invitrogen) at 4 °C overnight. The wells were washed and incubated with substrate solution (o‐phenylenediamine dihydrochloride), for 30 min, and the absorbance read on an ELISA plate reader at 490 nm[52]. %Inhibition=mean OD of untreated group-mean OD of treated group/mean OD of untreated group)×100.

[5] = system: gastric mucosa tissue of rats; assay: Lipid peroxidation in gastric mucosa; format: in vivo, rat; conditions: oral 0.0942 mmol/kg
Description: The compounds screened for ulcerogenic potential were also analysed for lipid peroxidation. Lipid peroxidation is measured as nmolMDA/100 mg of gastric mucosa tissue. […] Thus, it was concluded that protection of gastric mucosa might be related to the inhibition of lipid peroxidation.
Lipid peroxidation in the gastric mucosa was determined using the reported method by Ohkawa H. et al.[61]. The gastric mucosa of the glandular area was scraped off using glass slides after the stomach had been examined for ulcers. Gastric mucosa was weighed (100 mg) and homogenised in 1.8 cm^3 of ice-cold solution of KCl (1.15%). The homogenate is further added with 0.2 cm^3 of 8.1% sodium dodecyl sulphate (SDS), 1.5 cm^3 of acetate buffer, and 1.5 cm^3 of 0.8% thiobarbituric acid. After adding all buffers, the mixture was kept for incubation for 60 min over water bath, maintaining the temperature of the water bath at 95 °C. Later, the mixture was allowed to cool and then extracted with a freshly prepared mixture of n-butanol and pyridine (15:1 v/v), the organic layer obtained was centrifuged at 3000 rpm for about 10 min. The organic layer was separated out and visualised on UV–visible spectrophotometer. Concentration was measured using the following formula: Concentration=Absorbance×volume×109÷1.56×10^5×1000
Results obtained were expressed as nmol MDA/100 mg tissue and extinction coefficient (1.56 × 10^5) cm^-1 M^-1.

[6] = system: HEK293 human embryonic kidney cell line; assay: MTT cytotoxicity assay, normal cell line HEK293; format: cell-based; conditions: read-out: IC50 (Mean ± SD) HEK293
Description: All the synthesized imidazothiazole derivatives linked with thiazolidinone moiety (4a-g and 5a-d, Fig. 4) were evaluated for their in- vitro anticancer activities against three selected human cancer cell lines namely non-small lung (A549), breast (MCF7) and colorectal (HCT116) and one normal human embryonic kidney cell line (HEK293) using the 3‐(4,5‐Dimethylthiazol‐2‐yl)-2,5‐Diphenyltetrazolium Bromide (MTT) assay method. […]. […].
Cytotoxicity study of the newly synthesized derivatives 4a-g and 5a-d was performed by MTT colorimetric assay method. […] Compounds were tested against selected cancer cell lines namely A549 (Lung), MCF-7(Breast) HCT116 (Colon), normal human embryonic kidney cell line (HEK293) and procured from National Centre for Cell Science Complex (NCCS) Pune University, India. Into a 96 well plate, cells were seeded into each well (3 × 10^3 cells/ per well), the plate were incubated for 24 h, after that the culture medium was discarded and replaced with fresh medium along with our newly synthesized test compounds in different concentration (10, 20, 40 and 80 µM) followed by incubation for 72 h. Further, the media of each well of the plates were aspirated with the addition of 100 µL MTT solution followed by incubation for the next 5 h at 37 °C. Finally, each well is treated with DMSO (100 µL) and swirled to dissolve the dark crystals of formazan. ELISA reader was used to measure the absorbance at 570 nm. The experiment was repeated three times; Graph pad prism and excel are used to calculate the IC50 values.

[7] = system: gastric mucosa of rats; assay: Ulcerogenic activity; format: in vivo, rat; conditions: oral 0.0942 mmol/kg
Description: The Compounds (4a-d, 5a-b) which were found potent as anti-inflammatory agents were further screened for their ulcerogenic risk. The compounds and the standard drug were tested at an oral dose of 0.0942 mmol/kg.
Animals were divided into different groups consisting of 6 rats per group. […] The control group received 0.5% of the carboxymethylcellulose (CMC) solution. […] 24 h before the test compounds were administered. After receiving the medication, the rats were given regular food for 17 h and then sacrificed. The stomach was taken out and opened along its greater curvature before being gently cleansed by dipping it in normal saline and then washing it with distilled water. The mucosal injury/damage was examined thoroughly using a magnifying glass. The mucosal injury in each stomach was scored using the following score system: 0.5: Redness; 1.0: Spot Ulcers; 1.5: Hemorrhagic Streaks; 2.0: Ulcers > 3 but 5, 3.0: Ulcers > 5. The severity index (SI) of stomach mucosal injury was calculated as the mean score of each treated group minus the mean score of the control group.

[8] = system: HCT116 human colorectal cancer cell line; assay: MTT cytotoxicity assay, HCT116; conditions: HCT-116, 72 h, read-out: IC50 (µM) (Mean ± SD) HCT116
Description: as §1

[9] = target: Bovine serum albumin (BSA) (Bos taurus, UniProt P02769); assay: BSA (protein albumin) denaturation inhibition assay; conditions: for BSA denaturation inhibition assay Mean absorbance ± SEM: 660 nm; for inhibition at 100 µg/mL: read-out: BSA denaturation inhibition assay % inhibition of denaturation, 100 μg/mL
Description: All the synthesized compounds were evaluated for anti-inflammatory activity by the inhibition of the albumin denaturation technique. […] All the test solutions (1 mL, 100 μg/mL) were then mixed with 1 mL of albumin solution (1%) and phosphate buffer saline and then incubated for around 15 min at 27 ± 1 °C. Further, the denaturation of protein was induced by keeping the reaction mixture on the water bath for 10 min and maintaining the temperature at 60 °C. Once the solution gets cooled, the turbidity was measured using UV–Visible spectrophotometer at 660 nm.

[10] = HEK293, MTT, 72 h, normal cell line

Sequence of EGFR kinase (P00533 25-1210): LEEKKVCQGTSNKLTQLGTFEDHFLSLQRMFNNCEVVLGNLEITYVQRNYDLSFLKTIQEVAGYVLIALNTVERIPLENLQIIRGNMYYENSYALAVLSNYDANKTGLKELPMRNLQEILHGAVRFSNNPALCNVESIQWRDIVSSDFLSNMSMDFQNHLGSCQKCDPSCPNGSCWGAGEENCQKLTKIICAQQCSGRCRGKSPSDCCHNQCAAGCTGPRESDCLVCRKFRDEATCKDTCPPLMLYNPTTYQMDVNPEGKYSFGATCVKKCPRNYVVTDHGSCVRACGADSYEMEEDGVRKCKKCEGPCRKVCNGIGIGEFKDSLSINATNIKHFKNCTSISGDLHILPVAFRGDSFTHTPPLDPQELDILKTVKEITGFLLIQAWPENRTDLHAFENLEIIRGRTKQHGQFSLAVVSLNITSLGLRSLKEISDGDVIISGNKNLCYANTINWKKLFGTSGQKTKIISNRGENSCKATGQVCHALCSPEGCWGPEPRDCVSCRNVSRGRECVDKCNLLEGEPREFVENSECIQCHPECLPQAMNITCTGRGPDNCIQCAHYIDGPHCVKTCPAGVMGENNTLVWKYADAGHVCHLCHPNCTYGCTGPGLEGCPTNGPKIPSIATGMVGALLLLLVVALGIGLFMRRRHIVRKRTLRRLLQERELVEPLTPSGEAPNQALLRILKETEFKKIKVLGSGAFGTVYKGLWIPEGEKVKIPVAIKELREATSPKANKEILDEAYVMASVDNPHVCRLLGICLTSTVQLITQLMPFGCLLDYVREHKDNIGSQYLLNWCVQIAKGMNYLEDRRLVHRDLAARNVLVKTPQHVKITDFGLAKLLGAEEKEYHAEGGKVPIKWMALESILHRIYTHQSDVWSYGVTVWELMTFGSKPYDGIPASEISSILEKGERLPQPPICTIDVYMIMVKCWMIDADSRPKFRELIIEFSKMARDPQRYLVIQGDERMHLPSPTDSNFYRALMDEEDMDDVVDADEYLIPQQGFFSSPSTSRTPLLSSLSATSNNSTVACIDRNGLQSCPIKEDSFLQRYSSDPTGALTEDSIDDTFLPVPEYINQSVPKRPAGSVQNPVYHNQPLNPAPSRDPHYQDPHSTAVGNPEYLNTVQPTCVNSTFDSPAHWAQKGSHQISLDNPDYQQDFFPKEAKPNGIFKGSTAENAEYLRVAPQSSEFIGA
Sequence of Bovine serum albumin (BSA) (P02769 25-607): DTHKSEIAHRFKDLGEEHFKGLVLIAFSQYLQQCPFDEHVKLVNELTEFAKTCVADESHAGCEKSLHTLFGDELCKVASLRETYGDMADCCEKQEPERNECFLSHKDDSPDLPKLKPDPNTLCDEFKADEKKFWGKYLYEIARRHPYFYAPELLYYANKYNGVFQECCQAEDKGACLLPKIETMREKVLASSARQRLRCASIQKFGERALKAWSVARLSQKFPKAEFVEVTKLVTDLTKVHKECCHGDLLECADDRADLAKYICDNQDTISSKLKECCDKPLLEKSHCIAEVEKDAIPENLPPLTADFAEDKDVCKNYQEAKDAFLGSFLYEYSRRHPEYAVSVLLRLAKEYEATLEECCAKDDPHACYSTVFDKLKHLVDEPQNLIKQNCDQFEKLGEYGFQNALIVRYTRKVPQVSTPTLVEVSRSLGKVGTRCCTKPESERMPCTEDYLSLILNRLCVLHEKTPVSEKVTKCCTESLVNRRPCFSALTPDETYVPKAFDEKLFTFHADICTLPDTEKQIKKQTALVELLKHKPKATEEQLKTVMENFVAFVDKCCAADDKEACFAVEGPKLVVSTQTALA

Row | Compound | % inhibition (paw edema) [1] [%] | Activity relative to standard drug [1] | IC50 [2] [µM] | IC50 [3] [µM] | IC50 [4] [µM] | Lipid peroxidation [5] [Nmol MDA/100 mg tissue] | IC50 [6, 10] [µM] | Mean ulcer severity index ± SEM [7] | melting point [°C] | IC50 [8] [µM] | BSA denaturation inhibition assay Mean absorbance ± SEM ([9]; 100 μg/mL) | inhibition at 100 µg/mL [9] [%] | Increase in Paw volume SEM [1] | BSA denaturation inhibition assay % inhibition of denaturation ([9]; 100 μg/mL) [%] | IC50 ([6]; HEK293, 72 h) [µM]
1 | CC1SC(c2c(-c3ccccc3)nc3sccn23)N(c2ccc(Cl)cc2Cl)C1=O (centres unmarked) [Compound 4d, 3-(2,4-Dichlorophenyl)-5-methyl-2-(6-phenylimidazo[2,1-b]thiazol-5-yl)thiazolidin-4-one] | 67.78 | 84.39 | 31.8 ± 1.1 | 35.8 ± 1.03 | 36 ± 1.89 | 6.16 ± 0.135 | 181 ± 5.74 | 1.250 ± 0.281 | 151 to 153 | 49.5 ± 7.14 | 0.326 ± 0.002 | 82 |  |  | 
2 | CC1SC(c2c(-c3ccccc3)nc3sccn23)N(c2ccc([N+](=O)[O-])cc2)C1=O (centres unmarked) [Compound 4e, 5-Methyl-3-(4-nitrophenyl)-2-(6-phenylimidazo[2,1-b]thiazol-5-yl) thiazolidin-4-one] |  |  | 50.6 ± 0.7 | 43.6 ± 7.19 | 57.1 ± 0.38 |  | 125 ± 5.8 |  | 187 to 189 | 89.9 ± 4.89 | 0.289 ± 0.012 | 61.1 |  |  | 
3 | Cc1ccc(N2C(=O)C(C)SC2c2c(-c3ccccc3)nc3sccn23)cc1 (centres unmarked) [Compound 4f] |  |  | 40.22 ± 0.38 | 33.7 ± 0.84 | 49.7 ± 4.89 |  | 147 ± 4.57 |  | 155 to 157 | 47.6 ± 8.97 | 0.288 ± 0.002 | 60.6 |  |  | 
4 | COc1ccc(N2C(=O)C(C)SC2c2c(-c3ccccc3)nc3sccn23)cc1 (centres unmarked) [Compound 4g, 3-(4-Methoxyphenyl)-5-methyl-2-(6-phenylimidazo[2,1-b]thiazol-5-yl) thiazolidin-4-one] |  |  | 70.1 ± 2.02 | 52.9 ± 1.65 | 46.5 ± 7.14 |  | 164 ± 4.69 |  | 162 to 164 | 76.3 ± 5.66 | 0.291 ± 0.011 | 62.1 |  |  | 
5 | O=C1CSC(c2c(-c3ccccc3)nc3sccn23)N1c1ccc(Cl)cc1 (centres unmarked) [Compound 5a, 3-(4-Chlorophenyl)-2-(6-phenylimidazo[2,1-b]thiazol-5-yl) thiazolidin-4-one] | 76.24 | 94.92 | 42.7 ± 3.35 | 35.1 ± 1.25 | 30.1 ± 4.17 | 5.75 ± 0.102 | 117 ± 5.69 | 1.083 ± 0.238 | 177 to 179 | 58.8 ± 3.14 | 0.323 ± 0.002 | 79.9 | 0.163 ± 0.018 |  | 
6 | O=C1CSC(c2c(-c3ccccc3)nc3sccn23)N1c1ccc(Br)cc1 (centres unmarked) [Compound 5b, 3-(4-Bromophenyl)-2-(6-phenylimidazo[2,1-b]thiazol-5-yl) thiazolidin-4-one] | 74.78 | 93.10 | 35.5 ± 2.15 | 44.2 ± 0.85 | 33.1 ± 1.58 | 5.68 ± 0.071 | 105 ± 3.5 | 1.000 ± 0.258 | 159 to 161 | 58.6 ± 4.51 | 0.317 ± 0.003 | 76.6 | 0.133 ± 0.008 |  | 
7 | Cc1ccc(N2C(=O)CSC2c2c(-c3ccccc3)nc3sccn23)cc1 (centres unmarked) [Compound 5c] |  |  | 34.2 ± 2.82 | 35.8 ± 4.61 | 29.3 ± 4.61 |  | 109 ± 5.32 |  | 153 to 155 | 60 ± 6.44 | 0.314 ± 0.003 | 79.9 |  | 65.28 | 
8 | COc1ccc(N2C(=O)CSC2c2c(-c3ccccc3)nc3sccn23)cc1 (centres unmarked) [Compound 5d, 3-(4-Methoxyphenyl)-2-(6-phenylimidazo[2,1-b]thiazol-5-yl) thiazolidin-4-one] |  |  | 33.1 | 38.1 ± 0.89 | 48 ± 1.97 |  | 111.8 ± 0.25 |  | 160 to 162 | 65.2 ± 0.9 | 0.287 ± 0.004 | 59.9 |  |  | 
9 | C#Cc1cccc(Nc2ncnc3cc(OCCOC)c(OCCOC)cc23)c1 [Erlotinib, reference compound] |  |  | 8.34 ± 8.09 | 10.7 ± 5.65 |  |  |  |  |  | 12.5 ± 1.87 |  |  |  |  | 80.2 ± 1.3
